Measured values reported in patent US11691949B2, “Quinoline sulfonamide compounds and their use as antibacterial agents” (OTAGO INNOVATION LIMITED, priority 2017, dated 2023).
Values after ≈ are worked out from the molar mass of the structure shown. Read-outs that look alike come from different tables or passages of the source.

Tests used:
Type in all cases: cell-based
S. uberis ATCC 19436 = test: MIC by broth microdilution, S. uberis; settings: Streptococcus uberis, read-out: S. uberis ATCC 19436 MIC
Method: (§1) Antibacterial susceptibility testing was performed in triplicate (biological) by measuring minimum inhibitory concentrations (MICs) by broth microdilution in 96-well flat bottom microtiter plates (ThermoFisher Scientific, New Zealand). S. uberis ATCC 19436, S. aureus ATCC 6538, or E. coli ATCC 10596 cells grown overnight were diluted to an OD600 of approximately 0.025, so that the final concentration of cells in the MIC assay was approximately 5×10^5 cfu/mL in media as follows: S. uberis; Todd Hewitt Broth (THB), S. aureus; Tryptic Soy Broth (TSB) and Cation Adjusted Muller Hinton Broth (CAMHB), and E. coli; Lysogeny Borth (LB) and CAMHB, before being dispensed into microtiter wells. As required additional sterile Zinc Sulphate (Heptahydrate) was supplemented into the media, so the final concentration was 50 μM. Test compounds were added to starting wells and two-fold serial dilutions were undertaken to generate a range of inhibitor concentrations at a final volume of 200 μl. Media and test compound-free (untreated) controls were included in each microtiter plate in triplicate. After 24 h incubation at 37° C. and 200 rpm, the OD600 of wells were read using a Varioskan Flash plate reader (ThermoFisher Scientific, New Zealand). The MIC was reported as the lowest concentration of the test compound for which no growth occurred, as determined by OD600 readings. The minimum bactericidal concentration (MBC) was determined using the Miles-Misra drop-plate method to measure the viability of cells in response to test compound challenge.

S. aureus ATCC 6538 = test: MIC by broth microdilution, S. aureus; settings: Staphylococcus aureus, read-out: S. aureus ATCC 6538 MIC
Method: as §1

E. coli ATCC 10596 = test: MIC by broth microdilution, E. coli; settings: Escherichia coli, read-out: E. coli ATCC 10536 MIC
Method: as §1

[1] = ATCC 10536 / ATCC 10596, No Zinc
[2] = ATCC 10536 / ATCC 10596, Zinc (50 μM)

SMILES | MIC (S. uberis ATCC 19436; ATCC19436, No Zinc) [mg/L] | MIC (S. uberis ATCC 19436; ATCC19436, Zinc (50 μM)) [mg/L] | MIC (S. aureus ATCC 6538; ATCC6538, No Zinc) [mg/L] | MIC (S. aureus ATCC 6538; ATCC6538, Zinc (50 μM)) [mg/L] | MIC (E. coli ATCC 10596; [1]) [mg/L] | MIC (E. coli ATCC 10596; [2]) [mg/L]
CC(C)(C)OC(=O)N1CCCC(C(=O)N/N=C/c2ccc3cccc(NS(=O)(=O)c4ccc(C(F)(F)F)cc4)c3n2)C1 (mixture of isomers) [ZDR123, tert-Butyl (E/Z)-3-(2-((8-((4-(trifluoromethyl)phenyl)sulfonamido)quinolin-2-yl)methylene)hydrazine-1-carbonyl)piperidine-1-carboxylate] | > 256 | 0.125 | > 256 | > 256 | > 256 | > 256
Cc1ccc2cccc(NS(=O)(=O)c3ccc(C(F)(F)F)cc3)c2n1 [ZDR018, N-(2-Methylquinolin-8-yl)-4-(trifluoromethyl)benzenesulfonamide] | > 256 | 0.125 (≈ 0.341 µM) | > 256 | > 256 | > 256 | > 256
O=Cc1ccc2cccc(NS(=O)(=O)c3ccc(C(F)(F)F)cc3)c2n1 [ZDR019, N-(2-Formylquinolin-8-yl)-4-(trifluoromethyl)benzenesulfonamide] | 16 (≈ 42.1 µM) | 1 (≈ 2.63 µM) | 8 (≈ 21 µM) | 8 (≈ 21 µM) | 128 (≈ 337 µM) | 128 (≈ 337 µM)
CN(C)Cc1ccc2cccc(NS(=O)(=O)c3ccc(C(F)(F)F)cc3)c2n1 [ZDR022, N-(2-((Dimethylamino)methyl)quinolin-8-yl)-4-(trifluoromethyl)-benzenesulfonamide] | 64 (≈ 156 µM) | 0.125 (≈ 0.305 µM) | 16 (≈ 39.1 µM) | 8 (≈ 19.5 µM) | > 256 | > 256
CNCc1ccc2cccc(NS(=O)(=O)c3ccc(C(F)(F)F)cc3)c2n1 [ZDR024, N-(2-((Methylamino)methyl)quinolin-8-yl)-4-(trifluoromethyl)-benzenesulfonamide] | 64 (≈ 162 µM) | 0.25 (≈ 0.632 µM) | 16 (≈ 40.5 µM) | 8 (≈ 20.2 µM) | 256 (≈ 647 µM) | ≥ 256
CCNCc1ccc2cccc(NS(=O)(=O)c3ccc(C(F)(F)F)cc3)c2n1 [ZDR025, N-(2-((Ethylamino)methyl)quinolin-8-yl)-4-(trifluoromethyl)-benzenesulfonamide] | 64 (≈ 156 µM) | 0.125 (≈ 0.305 µM) | 32 (≈ 78.2 µM) | > 256 | 256 (≈ 625 µM) | ≥ 256
CCCNCc1ccc2cccc(NS(=O)(=O)c3ccc(C(F)(F)F)cc3)c2n1 [ZDR026, N-(2-((Propylamino)methyl)quinolin-8-yl)-4-(trifluoromethyl)-benzenesulfonamide] | 64 (≈ 151 µM) | 0.125 (≈ 0.295 µM) | 32 (≈ 75.6 µM) | > 256 | > 256 | > 256
CC(C)NCc1ccc2cccc(NS(=O)(=O)c3ccc(C(F)(F)F)cc3)c2n1 [ZDR027, N-(2-((Isopropylamino)methyl)quinolin-8-yl)-4-(trifluoromethyl)-benzenesulfonamide] | 64 (≈ 151 µM) | 0.125 (≈ 0.295 µM) | 16 (≈ 37.8 µM) | 16 (≈ 37.8 µM) | > 256 | > 256
CCN(CC)Cc1ccc2cccc(NS(=O)(=O)c3ccc(C(F)(F)F)cc3)c2n1 [ZDR028, N-(2-((Diethylamino)methyl)quinolin-8-yl)-4-(trifluoromethyl)-benzenesulfonamide] | 128 (≈ 293 µM) | 0.125 (≈ 0.286 µM) | 256 (≈ 585 µM) | > 256 | > 256 | > 256
O=S(=O)(Nc1cccc2ccc(CN3CCOCC3)nc12)c1ccc(C(F)(F)F)cc1 [ZDR029, N-(2-((Morpholin-4-yl)methyl)quinolin-8-yl)-4-(trifluoromethyl)-benzenesulfonamide] | > 256 | 0.25 (≈ 0.554 µM) | > 256 | > 256 | > 256 | > 256
CN(C)CCNCc1ccc2cccc(NS(=O)(=O)c3ccc(C(F)(F)F)cc3)c2n1 [ZDR030, N-(2-(((2-(Dimethylamino)ethyl)amino)methyl)quinolin-8-yl)-4-(trifluoromethyl)benzenesulfonamide] | 16 (≈ 35.4 µM) | 1 (≈ 2.21 µM) | 16 (≈ 35.4 µM) | 16 (≈ 35.4 µM) | 128 (≈ 283 µM) | ≥ 256
O=S(=O)(Nc1cccc2ccc(CNCCO)nc12)c1ccc(C(F)(F)F)cc1 [ZDR031, N-(2-(((2-Hydroxyethyl)amino)methyl)quinolin-8-yl)-4-(trifluoromethyl)benzenesulfonamide] | 16 (≈ 37.6 µM) | 0.5 (≈ 1.18 µM) | 32 (≈ 75.2 µM) | 32 (≈ 75.2 µM) | ≥ 256 | > 256
O=S(=O)(Nc1cccc2ccc(CN3CCCCC3)nc12)c1ccc(C(F)(F)F)cc1 [ZDR033, N-(2-((Piperidin-1-yl)methyl)quinolin-8-yl)-4-(trifluoromethyl)-benzenesulfonamide] | > 256 | 0.125 (≈ 0.278 µM) | > 256 | > 256 | > 256 | > 256
O=S(=O)(Nc1cccc2ccc(CNCc3ccccn3)nc12)c1ccc(C(F)(F)F)cc1 [ZDR035, N-(2-((((Pyridin-2-yl)methyl)amino)methyl)quinolin-8-yl)-4-(trifluoromethyl)benzenesulfonamide] | 2 (≈ 4.23 µM) | 1 (≈ 2.12 µM) | 4 (≈ 8.47 µM) | 4 (≈ 8.47 µM) | 32 (≈ 67.7 µM) | > 256
CN(CCN(C)Cc1ccc2cccc(NS(=O)(=O)c3ccc(C(F)(F)F)cc3)c2n1)Cc1ccc2cccc(NS(=O)(=O)c3ccc(C(F)(F)F)cc3)c2n1 [ZDR036, N,N′-(((Ethane-1,2-diylbis(methylazanediyl))bis(methylene))-bis(quinoline-2,8-diyl))bis(4-(trifluoromethyl)benzenesulfonamide)] | > 256 | > 256 | > 256 | > 256 | > 256 | > 256
CN(Cc1ccc2cccc(NS(=O)(=O)c3ccc(C(F)(F)F)cc3)c2n1)Cc1ccc2cccc(NS(=O)(=O)c3ccc(C(F)(F)F)cc3)c2n1 [ZDR037, N,N′-(((Methylazanediyl)bis(methylene))bis(quinoline-2,8-diyl))bis(4-(trifluoromethyl)benzenesulfonamide)] | > 256 | 2 (≈ 2.63 µM) | > 256 | > 256 | > 256 | > 256
